Patent publication US12252524B2, “GIP/GLP1 co-agonist compounds” (Eli Lilly and Company, priority 2018, dated 2025)
Numbered stars: 1 amine (or outer) side, 2 acyl side, 3 side chain; on linkers, the order of the positions; unused ones are H or OH. Square brackets hold non-standard residues; d marks the D form. Side chains are listed from the residue outwards. Peptide text beside a SMILES is read from it. * marks the point of attachment. C20 diacid = O=C(O)CCCCCCCCCCCCCCCCCCC(=O)*; αMePhe(2-F) = C[C@](N)(Cc1ccccc1F)C(=O)O; γGlu = O=C(O)[C@H](CCC(=O)[*:2])N[*:1]; αMeF = C[C@](N)(Cc1ccccc1)C(=O)O; αMeL = CC(C)C[C@](C)(N)C(=O)O; AEEA = NCCOCCOCC(=O)O; Aib = CC(C)(N)C(=O)O

Legend:
[1] = biological target: T1, human Gcg receptor (Homo sapiens, UniProt P47871); assay: [125I]-Glucagon binding (SPA), human Gcg receptor; settings: read-out: hGLcgR Ki, nM (SEM, n)
T1 construct: expressed in transfected cells; crude membranes
Method in brief: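 Cell pellets were lysed in hypotonic Tris buffer, pH 7.5, homogenized, and spun at low then high speed to give crude membranes. Ki was derived from the fitted IC50.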

[2] = biological target: human GLP-1R (Homo sapiens, UniProt P43220); assay: [125I]-GLP-1 binding (SPA), human GLP-1 receptor; design: expressed in transfected cells; crude membranes; settings: read-out: hGLP1R Ki, (nM) (SEM, n)
Method in brief: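 Ki values are geometric means with SEM over independent replicates on different days, derived from IC50s fitted by four-parameter nonlinear regression. The assay used crude cell membranes in HEPES buffer, pH 7.4, containing CaCl2, MgCl2, bacitracin and TWEEN-20.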

[3] = biological target: T2, human GIP receptor (Homo sapiens, UniProt P48546); assay: [125I]-GIP binding (SPA), human GIP receptor; settings: read-out: hGIPR Ki, nM (SEM, n)
T2 construct: expressed in transfected cells; crude membranes
T2 sequence (P48546 22-466): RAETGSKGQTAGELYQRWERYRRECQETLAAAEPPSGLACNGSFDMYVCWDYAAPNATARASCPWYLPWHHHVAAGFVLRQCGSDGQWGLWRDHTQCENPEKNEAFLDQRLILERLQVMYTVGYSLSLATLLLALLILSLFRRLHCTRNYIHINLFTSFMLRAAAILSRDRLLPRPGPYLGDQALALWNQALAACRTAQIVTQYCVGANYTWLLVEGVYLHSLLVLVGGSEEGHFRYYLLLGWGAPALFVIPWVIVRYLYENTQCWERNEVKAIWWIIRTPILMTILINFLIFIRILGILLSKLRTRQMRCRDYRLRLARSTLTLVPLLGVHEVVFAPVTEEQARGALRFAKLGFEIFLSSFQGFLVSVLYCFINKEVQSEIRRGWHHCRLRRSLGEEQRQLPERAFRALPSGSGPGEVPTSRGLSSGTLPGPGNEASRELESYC

[4] = biological target: human GLP-1 receptor (GLP-1R) (Homo sapiens, UniProt P43220); assay: cAMP pharmacological functional assay in presence of casein, hGLP-1R; format: cell-based; settings: HEK293 cells expressing hGLP-1R, 0.1% Casein, geometric mean; read-out: hGLP1R cAMP Rel EC50 nM (SEM, n)
[5] = biological target: T3, gastric inhibitory peptide receptor (GIPR) (Homo sapiens, UniProt P48546); assay: cAMP pharmacological functional assay in presence of casein, hGIPR; format: cell-based; settings: HEK293 cells expressing hGIPR, 0.1% Casein, geometric mean; read-out: hGIPR cAMP Rel EC50 nM (SEM, n)
T3 sequence (P48546 22-466): T2 sequence (P48546 22-466)

Chain of human GLP-1 receptor (GLP-1R) (P43220 24-463): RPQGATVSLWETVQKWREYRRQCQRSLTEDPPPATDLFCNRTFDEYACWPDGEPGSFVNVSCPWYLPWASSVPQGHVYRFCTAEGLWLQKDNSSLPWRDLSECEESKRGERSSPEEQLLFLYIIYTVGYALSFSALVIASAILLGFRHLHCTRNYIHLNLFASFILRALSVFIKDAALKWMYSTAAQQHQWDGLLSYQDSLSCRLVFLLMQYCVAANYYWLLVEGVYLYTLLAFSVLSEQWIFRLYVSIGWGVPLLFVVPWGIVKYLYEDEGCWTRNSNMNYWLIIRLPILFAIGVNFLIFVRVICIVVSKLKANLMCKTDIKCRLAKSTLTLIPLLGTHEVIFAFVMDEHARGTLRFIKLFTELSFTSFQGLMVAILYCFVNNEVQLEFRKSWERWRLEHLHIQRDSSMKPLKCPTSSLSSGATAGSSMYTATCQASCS
Chain of human GLP-1R (P43220 24-463): as above
T1 sequence (P47871 26-477): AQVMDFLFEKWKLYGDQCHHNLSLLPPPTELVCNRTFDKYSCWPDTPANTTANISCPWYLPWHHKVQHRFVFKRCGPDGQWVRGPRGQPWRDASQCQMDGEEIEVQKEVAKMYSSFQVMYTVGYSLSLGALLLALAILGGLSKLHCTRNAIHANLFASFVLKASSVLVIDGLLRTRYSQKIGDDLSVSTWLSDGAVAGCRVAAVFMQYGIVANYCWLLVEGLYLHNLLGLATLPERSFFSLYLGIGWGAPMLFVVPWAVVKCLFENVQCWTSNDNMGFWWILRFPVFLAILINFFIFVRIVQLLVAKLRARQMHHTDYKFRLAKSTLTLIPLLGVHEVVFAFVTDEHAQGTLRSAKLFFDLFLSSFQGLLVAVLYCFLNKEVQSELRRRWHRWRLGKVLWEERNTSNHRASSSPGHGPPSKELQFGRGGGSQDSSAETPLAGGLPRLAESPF

Structure (SMILES) | Ki [1] | Ki [2] | Ki [3] | EC50 [4] | EC50 [5]
CC[C@H](C)[C@H](NC(=O)[C@H](CCCCN)NC(=O)[C@H](CC(=O)O)NC(=O)[C@H](CCCCNC(=O)COCCOCCNC(=O)COCCOCCNC(=O)CC[C@H](NC(=O)CCCCCCCCCCCCCCCCCCC(=O)O)C(=O)O)NC(=O)[C@H](CC(C)C)NC(=O)[C@@H](NC(=O)[C@H](CO)NC(=O)[C@H](Cc1ccc(O)cc1)NC(=O)[C@H](CC(=O)O)NC(=O)[C@H](CO)NC(=O)[C@@H](NC(=O)[C@](C)(Cc1ccccc1)NC(=O)[C@@H](NC(=O)CNC(=O)[C@H](CCC(=O)O)NC(=O)C(C)(C)NC(=O)[C@@H](N)Cc1ccc(O)cc1)[C@@H](C)O)[C@@H](C)O)[C@@H](C)CC)C(=O)N[C@@H](C)C(=O)N[C@@H](CCC(N)=O)C(=O)NC(C)(C)C(=O)N[C@@H](C)C(=O)N[C@@H](Cc1ccccc1)C(=O)N[C@H](C(=O)N[C@@H](CCC(=O)O)C(=O)N[C@@H](Cc1ccc(O)cc1)C(=O)N[C@@H](CC(C)C)C(=O)N[C@H](C(=O)N[C@@H](CCC(=O)O)C(=O)NCC(=O)NCC(N)=O)[C@@H](C)CC)[C@@H](C)CC [Example 93] (H-Y[Aib]EGT[αMeF]TSDYSILK([AEEA-AEEA-γGlu-C20 diacid])DKIAQ[Aib]AFIEYLIEGG-NH2) | 15.7 nM | 1.89 nM | 0.0859 nM | 0.115 nM | 0.185 nM
CC[C@H](C)[C@H](NC(=O)[C@H](CC(C)C)NC(=O)[C@H](Cc1ccc(O)cc1)NC(=O)[C@@H](CCC(=O)O)NC(=O)[C@@H](NC(=O)[C@H](Cc1ccccc1)NC(=O)[C@H](CCC(=O)O)NC(=O)C(C)(C)NC(=O)[C@H](CCC(N)=O)NC(=O)[C@H](C)NC(=O)[C@H](CCCCNC(=O)COCCOCCNC(=O)COCCOCCNC(=O)CC[C@H](NC(=O)CCCCCCCCCCCCCCCCCCC(=O)O)C(=O)O)NC(=O)[C@H](CCC(=O)O)NC(=O)[C@H](CC(=O)O)NC(=O)[C@H](CC(C)C)NC(=O)[C@](C)(CC(C)C)NC(=O)[C@@H](NC(=O)[C@H](CO)NC(=O)[C@@H](NC(=O)[C@H](CC(=O)O)NC(=O)[C@H](CO)NC(=O)[C@@H](NC(=O)[C@](C)(Cc1ccccc1F)NC(=O)[C@@H](NC(=O)CNC(=O)[C@H](CCC(=O)O)NC(=O)C(C)(C)NC(=O)[C@@H](N)Cc1ccc(O)cc1)[C@@H](C)O)[C@@H](C)O)C(C)C)[C@@H](C)CC)[C@@H](C)CC)C(=O)N[C@@H](CCC(=O)O)C(=O)NCC(=O)NCC(=O)N1CCC[C@H]1C(=O)N[C@@H](CO)C(=O)N[C@@H](CO)C(=O)NCC(=O)N[C@@H](C)C(=O)N1CCC[C@H]1C(=O)N1CCC[C@H]1C(=O)N1CCC[C@H]1C(=O)N[C@@H](CO)C(N)=O [Example 191] (H-Y[Aib]EGT[αMePhe(2-F)]TSDVSI[αMeL]LDEK([AEEA-AEEA-γGlu-C20 diacid])AQ[Aib]EFI[dE]YLIEGGPSSGAPPPS-NH2) | 348 nM | 4.52 nM | 0.144 nM | 0.0356 nM | 0.0645 nM
CC[C@H](C)[C@H](NC(=O)[C@H](CCCCN)NC(=O)[C@H](CC(=O)O)NC(=O)[C@H](CC(C)C)NC(=O)[C@H](CC(C)C)NC(=O)[C@@H](NC(=O)[C@H](CO)NC(=O)[C@H](Cc1ccc(O)cc1)NC(=O)[C@H](CC(=O)O)NC(=O)[C@H](CO)NC(=O)[C@@H](NC(=O)[C@H](Cc1ccccc1)NC(=O)[C@@H](NC(=O)CNC(=O)[C@H](CCC(=O)O)NC(=O)C(C)(C)NC(=O)[C@@H](N)Cc1ccc(O)cc1)[C@@H](C)O)[C@@H](C)O)[C@@H](C)CC)C(=O)N[C@@H](C)C(=O)N[C@@H](CCC(N)=O)C(=O)NC(C)(C)C(=O)N[C@@H](C)C(=O)N[C@@H](Cc1ccccc1)C(=O)N[C@H](C(=O)N[C@@H](CCC(=O)O)C(=O)N[C@@H](Cc1ccc(O)cc1)C(=O)N[C@@H](CCCCNC(=O)COCCOCCNC(=O)COCCOCCNC(=O)CC[C@H](NC(=O)CCCCCCCCCCCCCCCCCCC(=O)O)C(=O)O)C(=O)N[C@H](C(=O)N[C@@H](CCC(=O)O)C(=O)NCC(=O)NCC(=O)N1CCC[C@H]1C(=O)N[C@@H](CO)C(=O)N[C@@H](CO)C(=O)NCC(=O)N[C@@H](C)C(=O)N1CCC[C@H]1C(=O)N1CCC[C@H]1C(=O)N1CCC[C@H]1C(=O)N[C@@H](CO)C(N)=O)[C@@H](C)CC)[C@@H](C)CC [Example 35] (H-Y[Aib]EGTFTSDYSILLDKIAQ[Aib]AFIEYK([AEEA-AEEA-γGlu-C20 diacid])IEGGPSSGAPPPS-NH2) | > 964 nM | 54.6 nM | 0.0358 nM | 8.38 nM | 0.0905 nM
CC[C@H](C)[C@H](NC(=O)[C@H](CC(C)C)NC(=O)[C@H](Cc1ccc(O)cc1)NC(=O)[C@H](CCC(=O)O)NC(=O)[C@@H](NC(=O)[C@H](Cc1ccccc1)NC(=O)[C@H](C)NC(=O)[C@H](Cc1c[nH]cn1)NC(=O)[C@H](CCC(N)=O)NC(=O)[C@H](C)NC(=O)[C@H](CCCCNC(=O)COCCOCCNC(=O)COCCOCCNC(=O)CC[C@H](NC(=O)CCCCCCCCCCCCCCCCCCC(=O)O)C(=O)O)NC(=O)[C@H](CCCCN)NC(=O)[C@H](CC(=O)O)NC(=O)[C@H](CC(C)C)NC(=O)[C@H](CC(C)C)NC(=O)[C@@H](NC(=O)[C@H](CO)NC(=O)[C@H](Cc1ccc(O)cc1)NC(=O)[C@H](CC(=O)O)NC(=O)[C@H](CO)NC(=O)[C@@H](NC(=O)[C@H](Cc1ccccc1)NC(=O)[C@@H](NC(=O)CNC(=O)[C@H](CCC(=O)O)NC(=O)C(C)(C)NC(=O)[C@@H](N)Cc1ccc(O)cc1)[C@@H](C)O)[C@@H](C)O)[C@@H](C)CC)[C@@H](C)CC)C(=O)N[C@@H](CCC(=O)O)C(=O)NCC(=O)NCC(=O)N1CCC[C@H]1C(=O)N[C@@H](CO)C(=O)N[C@@H](CO)C(=O)NCC(=O)N[C@@H](C)C(=O)N1CCC[C@H]1C(=O)N1CCC[C@H]1C(=O)N1CCC[C@H]1C(=O)N[C@@H](CO)C(N)=O [Example 255] (H-Y[Aib]EGTFTSDYSILLDKK([AEEA-AEEA-γGlu-C20 diacid])AQHAFIEYLIEGGPSSGAPPPS-NH2; N-terminus assumed) | 257 nM | 2.58 nM | 0.0772 nM | 0.0407 nM | 0.102 nM
CC[C@H](C)[C@H](NC(=O)[C@H](CCCCN)NC(=O)[C@H](CC(=O)O)NC(=O)[C@H](CC(C)C)NC(=O)[C@H](CC(C)C)NC(=O)[C@@H](NC(=O)[C@H](CO)NC(=O)[C@H](Cc1ccc(O)cc1)NC(=O)[C@H](CC(=O)O)NC(=O)[C@H](CO)NC(=O)[C@@H](NC(=O)[C@H](Cc1ccccc1)NC(=O)[C@@H](NC(=O)CNC(=O)[C@H](CCC(=O)O)NC(=O)C(C)(C)NC(=O)[C@@H](N)Cc1ccc(O)cc1)[C@@H](C)O)[C@@H](C)O)[C@@H](C)CC)C(=O)N[C@@H](C)C(=O)N[C@@H](CCC(N)=O)C(=O)NC(C)(C)C(=O)N[C@@H](C)C(=O)N[C@@H](Cc1ccccc1)C(=O)N[C@@H](CCCCNC(=O)COCCOCCNC(=O)COCCOCCNC(=O)CC[C@H](NC(=O)CCCCCCCCCCCCCCCCCCC(=O)O)C(=O)O)C(=O)N[C@@H](CCC(=O)O)C(=O)N[C@@H](Cc1ccc(O)cc1)C(=O)N[C@@H](CC(C)C)C(=O)N[C@H](C(=O)N[C@@H](CCC(=O)O)C(=O)NCC(=O)NCC(=O)N1CCC[C@H]1C(=O)N[C@@H](CO)C(=O)N[C@@H](CO)C(=O)NCC(=O)N[C@@H](C)C(=O)N1CCC[C@H]1C(=O)N1CCC[C@H]1C(=O)N1CCC[C@H]1C(=O)N[C@@H](CO)C(N)=O)[C@@H](C)CC [Example 33] (H-Y[Aib]EGTFTSDYSILLDKIAQ[Aib]AFK([AEEA-AEEA-γGlu-C20 diacid])EYLIEGGPSSGAPPPS-NH2; N-terminus assumed) | > 979 nM | 361 nM | 6.4 nM | 251 nM | 63.3 nM
